The values below come from ChEMBL document CHEMBL4418268, “Nitrogen-containing heterocyclic compound” (2018).

SMILES strings stand for the structures.

The experiment concerns HUVEC. In words: Inhibition of TNF-alpha-induced CXCL10 production in HUVEC cells at 0.1 uM incubated for 1 hr followed by TNF-alpha addition and measured after 72 hrs by ELISA relative to control. The following applies: Homo sapiens. The experiment is classed as functional.
For the compound `CCn1c(=O)cc(N2CCOCC2)c2cc(-n3c(-c4ccccc4)cn(C(C)C)c3=O)ccc21`, the inhibition at 0.1 µM was at least 50%.
In the case of `CCn1c(=O)cc(N2CCOCC2)c2cc(-n3c(-c4ccccc4)cn(CCN4CCOCC4)c3=O)ccc21`, the inhibition at 0.1 µM was at least 50%.
Under `CCn1c(=O)cc(C2CC2)c2cc(N3C(=O)C(C)C(=O)N3c3ccccc3)ccc21` (stereo unspecified) stands at least 50%; under `CCn1c(=O)cc(C)c2cc(-c3cccnc3-c3ccccc3)ccc21`, at least 50%; under `CCn1c(=O)cc(C2CC2)c2cc(-n3c(=O)cc(C)n3-c3ccccc3)ccc21`, at least 50%.
Compound `CCn1c(=O)cc(C2CCN(C(C)=O)CC2)c2cc(C(=O)N(C)c3ccc(C)cc3)ccc21` yielded an inhibition at 0.1 µM of at least 50%.
Under `CCn1c(=O)cc(C2CC2)c2cc(N3C(=O)CC[C@H]3c3ccccc3)ccc21` stands at least 50%; under `CCn1c(=O)cc(C2CC2)c2cc(-n3c(-c4ccc(C(F)(F)F)cc4)c[nH]c3=O)ccc21`, at least 50%.
The compound `CCn1c(=O)cc(C2CCN(C)CC2)c2cc(C(=O)N3CCCc4ccccc43)ccc21` returned an inhibition at 0.1 µM of at least 50%.
On to `CCn1c(=O)cc(C2CC2)c2cc(N(C)C(=O)c3ccccc3)ccc21`, for which the inhibition at 0.1 µM is at least 50%.
With `CCn1c(=O)cc(N2CCOCC2)c2cc(-n3c(-c4ccccc4)c[nH]c3=O)ccc21`, the inhibition at 0.1 µM is at least 50%.
The compound `CCn1c(=O)cc(C2CCN(C)CC2)c2cc(C(=O)N(C)c3ccc(C)c(C)c3)ccc21` gave an inhibition at 0.1 µM of at least 50%.
Under `CCn1c(=O)cc(C2CC2)c2cc(-n3c(-c4ccc(Cl)cc4)cn(C)c3=O)ccc21` stands at least 50%; under `CCn1c(=O)cc(C2CC2)c2cc(-n3c(-c4ccc(C)cc4)cn(C)c3=O)ccc21`, at least 50%; under `CCn1c(=O)cc(C2CC2)c2cc(-n3c(-c4ccc(C)cc4)c[nH]c3=O)ccc21`, at least 50%.
`CCn1c(=O)cc(N2CCOCC2)c2cc(-n3c(-c4ccc(C(F)(F)F)cc4)cn(C)c3=O)ccc21` registered an inhibition at 0.1 µM of at least 50%.
Under `CCn1c(=O)cc(N2CCOCC2)c2cc(-n3c(-c4ccccc4)cn(CCO)c3=O)ccc21` stands at least 50%; under `CCn1c(=O)cc(N2CCOCC2)c2cc(-n3c(-c4ccccc4)cn(CCN(C)C)c3=O)ccc21`, at least 50%; under `CCn1c(=O)cc(C2CCN(C)CC2)c2cc(C(=O)N(C)c3ccc(C)c(F)c3)ccc21`, at least 50%.
Turning to `CCn1c(=O)cc(N2CCOCC2)c2cc(-c3cccnc3-c3ccccc3)ccc21`, the inhibition at 0.1 µM was at least 50%.
As to `CCN1CCC(c2cc(=O)n(CC)c3ccc(C(=O)N(C)c4ccccc4)cc23)CC1`, the inhibition at 0.1 µM is at least 50%.
On to `CCn1c(=O)cc(N2CCOCC2)c2cc(-n3c(-c4ccc(Cl)cc4)cn(C)c3=O)ccc21`, for which the inhibition at 0.1 µM was at least 50%.
Compound `CCn1c(=O)cc(C2CCC(O)CC2)c2cc(C(=O)N(C)c3ccc(Cl)cc3)ccc21` (stereo unspecified) gave an inhibition at 0.1 µM of at least 50%.
Consider `CCC1C(=O)N(c2ccccc2)N(c2ccc3c(c2)c(C2CC2)cc(=O)n3CC)C1=O` (stereo unspecified), for which the inhibition at 0.1 µM is at least 50%.
With `CCn1c(=O)cc(N2CCOCC2)c2cc(-n3c(-c4ccc(C)cc4)cn(C)c3=O)ccc21` the figure was at least 50%; with `CCn1c(=O)cc(C2CC2)c2cc(-n3c(C)cc(=O)n3-c3ccccc3)ccc21`, at least 50%; with `CCn1c(=O)cc(N2CCOCC2)c2cc(-c3ccccc3-c3ccccc3)ccc21`, at least 50%.
With `CCn1c(=O)cc(C2CC2)c2cc(-c3cccnc3-c3ccccc3)ccc21` the figure was at least 50%; with `CCn1c(=O)cc(C2CC2)c2cc(-n3c(=O)[nH]c(=O)n3-c3ccccc3)ccc21`, at least 50%.
In turn, `CCn1c(=O)cc(N2CCOCC2)c2cc(-c3nccn3-c3ccccc3)ccc21` displayed an inhibition at 0.1 µM of at least 50%.
The compound `CCn1c(=O)cc(C2CC2)c2cc(-n3c(-c4ccc(C(F)(F)F)cc4)cn(C)c3=O)ccc21` had an inhibition at 0.1 µM of at least 50%.
`CCn1c(=O)cc(C2CC2)c2cc(-n3c(-c4ccc(Cl)cc4)c[nH]c3=O)ccc21` came in with an inhibition at 0.1 µM of at least 50%.
Under `CCn1c(=O)cc(N2CCOCC2)c2cc(N(C)C(=O)c3ccc(Cl)cc3)ccc21` stands at least 50%; under `CCn1c(=O)cc(C(C)C)c2cc(N(C)C(=O)c3ccc(Cl)cc3)ccc21`, at least 50%; under `CCCCn1cc(-c2ccccc2)n(-c2ccc3c(c2)c(N2CCOCC2)cc(=O)n3CC)c1=O`, at least 50%.
With `CCn1c(=O)cc(N2CCOCC2)c2cc(-n3ccnc3-c3ccccc3)ccc21` the figure was at least 50%; with `CCn1c(=O)cc(C2CCN(C)CC2)c2cc(C(=O)N(C)c3ccc4c(c3)CCC4)ccc21`, at least 50%.
In the case of `CCn1c(=O)cc(N2CCOCC2)c2cc(-n3c(-c4ccc(C)cc4)c[nH]c3=O)ccc21`, the inhibition at 0.1 µM was at least 50%.
Under `CCn1c(=O)cc(N2CCOCC2)c2cc(-n3c(-c4ccc(Cl)cc4)c[nH]c3=O)ccc21` stands at least 50%.
With `CCn1c(=O)cc(N2CCOCC2)c2cc(-n3c(-c4ccccc4)cn(CCOC)c3=O)ccc21` the figure was at least 50%; with `CCn1c(=O)cc(N2CCOCC2)c2cc(N3C(=O)CC[C@H]3c3ccccc3)ccc21`, at least 50%; with `CCn1c(=O)cc(N2CCOCC2)c2cc(-n3cc(C)nc3-c3ccccc3)ccc21`, at least 50%.
Under `CCn1c(=O)cc(C2CC2)c2cc(-c3nc(C)[nH]c3-c3ccccc3)ccc21` stands at least 50%.
Regarding `CCn1c(=O)cc(C2CCN(C)CC2)c2cc(C(=O)N(C)c3ccc(C)c(Cl)c3)ccc21`, the inhibition at 0.1 µM is at least 50%.
Compound `CCn1c(=O)cc(C2CCN(C)CC2)c2cc(C(=O)N(C)c3ccc(C)cc3)ccc21` returned an inhibition at 0.1 µM of at least 50%.
As to `CCn1c(=O)cc(N2CCOCC2)c2cc(-n3c(-c4ccccc4)cn(CCN4CCCCC4)c3=O)ccc21`, the inhibition at 0.1 µM was at least 50%.
With `CCn1c(=O)cc(C2CC2)c2cc(-c3nccnc3-c3ccccc3)ccc21` the figure was at least 50%; with `CCn1c(=O)cc(N2CCOCC2)c2cc(-n3c(-c4ccc(C(F)(F)F)cc4)c[nH]c3=O)ccc21`, at least 50%; with `CCn1c(=O)cc(C2CC2)c2cc(-c3nc(C)nn3-c3ccccc3)ccc21`, at least 50%.
With `CCn1cc(-c2ccccc2)n(-c2ccc3c(c2)c(N2CCOCC2)cc(=O)n3CC)c1=O` the figure was at least 50%; with `CCCn1cc(-c2ccccc2)n(-c2ccc3c(c2)c(N2CCOCC2)cc(=O)n3CC)c1=O`, at least 50%.
